Tested on: 2DG hyperglycemic rats
Assay: anti-hyperglycemia in the 2DG hyperglycemic rats
Assay type: in vivo, rat
Settings: 10 ng intracranially administered
Description: Since blood glucose levels are expected to be reduced when the activity of the autonomic nervous system is controlled by carnosine at a low dose, the effect of carnosine on anti-hyperglycemia in the 2DG hyperglycemic rats was investigated according to the method of Chun et al. (Brain Research 809:165-174, 1998). Wistar male rats (initial weight, about 250 g) were used that had been acclimated for at least 10 days to an environment in a room illuminated with an incandescent light of 80 lux on the average for 12 hours at room temperature (24 +/− 1° C.) with free access to the feed.
Three days before the experiment, rats under anesthesia with pentobarbital (35 mg/kg body weight, intraperitoneal administration) received the insertion of a cardiac catheter comprising a silastic tubing (Dow Corning, Midland, Mich.) and a polyethylene tubing (Clay Adams, Parsippany, N.J.) into the right atrium and a polyethylene tubing into the right lateral cerebral ventricle (LCV). On the day of the experiment, carnosine dissolved in physiological saline was administered to the rats intracranially (0.01 ml) or intraperitoneally (0.1 ml) with the simultaneous administration into the rat LCV of 80 μmol 2-deoxy-D-glucose (2DG, 0.01 ml). The control rats received physiological saline instead of carnosine and an artificial cerebrospinal fluid in stead of 2DG, each at the same amount.
Sixty minutes after the administration of 2DG into the LCV, 300 μl of blood was taken via the cardiac catheter and the plasma level of glucose was determined. The glucose concentrations in the plasma were measured using the Fuji-Dri-chem system (Fuji Film Tokyo) according to the glucose oxidase method. Changes in plasma concentrations of glucose were expressed as a ratio (%) relative to the control value at 90 minutes after 2DG administration set at 100. Four or five rats were used in the experiments. Data were tested with ANOVA (p<0.05) and were expressed as mean +/− standard error.

SMILES: Cn1cncc1C[C@H](NC(=O)CCN)C(=O)O [anserine, reference compound]
- effect on hyperglycemia: did not suppress hyperglycemia

Source: patent US20030065030A1, “Autonomic controlling agents and health drinks and foods” (priority 2001, published 2003)
